# Measurements: patent US20250319024A1, “TARGETED NANOPARTICLES AND THEIR USES RELATED TO INFECTIOUS DISEASE” (priority 2021, published 2025)
# Columns and labels:
# T. gondii = conditions: 200 mg/kg per day for 10 days, previous studies; cited from earlier work
# M. tuberculosis = conditions: literature; cited from earlier work
# [1] = test system: C. albicans, A. fumigatus, C. neoformans; test: Liposome binding, summary statements over all three fungal species
molecule,measurement,setting,value
"CC[C@H]1OC(=O)[C@H](C)[C@@H](O[C@H]2C[C@@](C)(OC)[C@@H](O)[C@H](C)O2)[C@H](C)[C@@H](O[C@@H]2O[C@H](C)C[C@H](N(C)C)[C@H]2O)[C@](C)(O)C[C@@H](C)CN(C)[C@H](C)[C@@H](O)[C@]1(C)O [Free AZI, Azithromycin]",mouse survival,T. gondii,100%
"CO[C@H]1/C=C/O[C@@]2(C)Oc3c(C)c(O)c4c(O)c(c(/C=N/N5CCN(C)CC5)c(O)c4c3C2=O)NC(=O)/C(C)=C\C=C\[C@H](C)[C@H](O)[C@@H](C)[C@@H](O)[C@@H](C)[C@H](OC(C)=O)[C@@H]1C [free RIF, rifampin]",doses reported to control murine infections,M. tuberculosis,~10 mg/kg/day
"DCS12: recombinant human DC-SIGN isoform, CRD fused to neck repeats 1 and 2, SEQ ID NO: 12 (protein) MAHHHHHHYGTGSGKGKGSGSGQSRQDAIYQNLTQLKAAVGELSEKSKLQEIYQELTQLKAAVERLCHPCPWEWTFFQGNCYFMSNSQRNWHDSITACKEVGAQLVVIKSAEEQNFLQLQSSRSNRFTWMGLSDLNQEGTWQWVDGSPLLPSFKQYWNRGEPNNVGEEDCAEFSGNGWNDDKCNLAKFWICKKSAASCSRDEEQFLSPAPATPNPPPA",bound more efficiently than untargeted AmB-LLs or BSA-AmB-LLs,[1],more than an order of magnitude
